The test system of assay [1] is N2a cells expressing APPswe/PS1Δ9. Kind of assay: Tau protein levels by Western blot. The note with it: for tau protein levels (Western blot): figure legend FIG. 10C; for increase in tau protein levels: FIG. 10C. It is filed as cell-based, murine. On the procedure:
There are numerous assays for tau known in the art. For example, the processing of tau by immunocytochemistry and Western blot analysis is performed using an antibody that recognizes both phosphorylated and non-phosphorylated forms (Adamec et al., Brain Res. 757:93–101, 1997). Abnormal tau conformation and byperphosphorylated tau is examined using suitable monoclonal antibodies (e.g., MC1 (Jicha et al., J. Neurosci. Res. 48:128–132) and AT8 (Innogenetics, Gent, Belgium)). EM analysis can be performed to characterize cytoskeletal changes in neurons (Nixon, Bioessays 20:798–807, 1998).
(In western blotting, separated proteins are transferred to a membrane and probed.)

For assay [2], the system named is primary cortical neurons from normal mouse embryos. Kind of assay: Secreted Aβ by ELISA in primary cortical neuronal cultures. Type of assay: cell-based. On the procedure:
We have confirmed this effect of the autophagy inhibitor 3MA on Aβ production in primary cortical neuronal cultures derived from normal mouse embryos (FIG. 11). Following a media change, cultures were incubated in the presence or absence of 3MA for six hours. […] Dissected embryonic cortical tissue from Sprague-Dawley rat embryos (18d gestation) or mouse embryos (17d gestation) is rinsed with calcium/magnesium-free Hanks buffered saline solution and resuspended in 5.0 ml 0.125% trypsin and 0.5 mM EDTA at 37° C. […] Trypsin is quenched and the cells are plated at 1.5×10^6 cells/mL on polylysine coated plates and cultured at 37° C. in 5% CO2 in B27/Neurobasal medium (Gibco/BRL, Gaithersburg, Md.) containing 0.0015% fluorodeoxyuridine (FUDR), giving cultures that are >95% neuronal. For the Aβ sandwich ELISA, Nunc-Immuno Plates (Nunc A/S, Roskilde, Denmark) were coated overnight using 4° C. using antibodies specific for Aβ40 or Aβ42 in 100 mM bicarbonate buffer, pH 9.6. […] Immediately prior to being loaded on the ELISA, 1 ml of the brain homogenate was extracted in diethylamine (Sigma, St. Lousi, Minn.) by adding an equal volume of 0.4% DEA in 100 mM NaCl, re-homogenized and centrifuged for 1 hour at 100,000×g. […] Alternatively, conditioned media collected from cells was loaded neat and 1:2. Aβ-40 and Aβ-42 peptide standards were purchased from American Peptide Co. (Sunnyvale, Calif.), stored at −70° C., and diluted in EC buffer immediately prior to use. ELISA plates were incubated overnight with 4° C. with samples and standards. Aβ was detected by incubating for 4 hours at room temperature with an HRP-conjugated anti-Aβ antibody in 20 mM Na phosphate, 2 mM EDTA, 400 mM Nacl, 1.0% BSA. ELISA plates were developed using a color reaction (ABTS Peroxide Substrate System, Kirkegaard & Perry, Gaithersburg, Md.) and the OD450 read.
(An ELISA detects its analyte on a solid surface through an enzyme-linked reagent.)

In assay [3] the test system is N2a cells expressing APPswe/PS1Δ9. Kind of assay: Secreted Aβ in conditioned medium by ELISA. It is filed as cell-based, murine. Particulars: 5 mM 3MA, FIG. 10B. On the procedure:
(§1) In a second set of experiments, N2a cells expressing APPswe/PS1 wt or APPswe/PS1Δ9 were incubated either in the presence or absence of 5 mM 3MA (FIG. 10B). Conditioned medium was collected and pooled from two plates and spun at 1000×g to remove cells and cellular debris. The amount of secreted Aβ was then determined using ELISA. In both APPswe/PS1 wt and APPswe/PS1 Δ9 N2A cells incubated in the presence of 3MA, there was a reduction of Aβ1-40 and Aβ1-42 in the conditioned medium (FIG. 10B). While the decrease was greatest in the N2A cells expressing mutant PS1, we found a significant decrease of approximately 20% or great for both Aβ species in both the wild-type and Δ9 PS1 expressing lines.
(§2) For the Aβ sandwich ELISA, Nunc-Immuno Plates (Nunc A/S, Roskilde, Denmark) were coated overnight using 4° C. using antibodies specific for Aβ40 or Aβ42 in 100 mM bicarbonate buffer, pH 9.6. Remaining protein binding sites were blocked by incubating with 1% Block Ace (Yukijirushi Milk, Sapporo Japan) in PBS for 4 hours at room temperature. 10% (w/v) homogenates were prepared from a hemibrain in 20 MM Tris, 250 mM sucrose, 1 mM EDTA, 1 mM EGTA, protease inhibitors, pH 7.4, and stored frozen at −70° C. Immediately prior to being loaded on the ELISA, 1 ml of the brain homogenate was extracted in diethylamine (Sigma, St. Lousi, Minn.) by adding an equal volume of 0.4% DEA in 100 mM NaCl, re-homogenized and centrifuged for 1 hour at 100,000×g. The supernatant was collected, neutralized with 0.1 volume 0.5 M Tris, pH 6.8, and loaded in duplicate wells both neat and diluted 1:2 in EC buffer (20 mM Na phosphate, 2 mM EDTA, 400 mM NaCl, 0.2% BSA, 0.4% Block Ace, 0.95% CHAPS). […] Alternatively, conditioned media collected from cells was loaded neat and 1:2. Aβ-40 and Aβ-42 peptide standards were purchased from American Peptide Co. (Sunnyvale, Calif.), stored at −70° C., and diluted in EC buffer immediately prior to use. ELISA plates were incubated overnight with 4° C. with samples and standards. Aβ was detected by incubating for 4 hours at room temperature with an HRP-conjugated anti-Aβ antibody in 20 mM Na phosphate, 2 mM EDTA, 400 mM Nacl, 1.0% BSA. ELISA plates were developed using a color reaction (ABTS Peroxide Substrate System, Kirkegaard & Perry, Gaithersburg, Md.) and the OD450 read.

Assay [4] concerns N2a cells expressing APPswe/PS1 wt. As to the kind of experiment: Secreted Aβ in conditioned medium by ELISA. It is filed as cell-based, murine. On the procedure:
as §1, §2

The test system of assay [5] is N2a cells expressing APPswe/PS1Δ9. Kind of assay: Aβ secretion, metabolic labeling and anti-Aβ immunoprecipitation, SDS-PAGE/fluorography. It is filed as cell-based, murine. The text has this: (§3) Cells were then metabolically labeled for four hours, again in the absence or presence of autophagy inhibitors. The growth medium was collected and subjected to immunoprecipitation with an anti-Aβ monoclonal antibody that recognizes both Aβ1-40 and Aβ1-42. Labeled Aβ was resolved by SDS-PAGE and fluorography (FIG. 10A).

Assay [6] relates to N2a cells expressing APPswe/PS1 wt. The assay is described as above. It is filed as cell-based, murine.
Text: as §3

[7] abbreviates: six hours incubation, ELISA, FIG. 11.
Setting [8] is: 10 mM inhibitor (leucine and histidine 10 mM each), four hours metabolic labeling, growth medium, FIG. 10A top panel.
[9] abbreviates: 10 mM inhibitor, C-terminal antibody, FIG. 10A bottom panel.

The structures appear in SMILES notation. A value given as a limit tells only on which side of the number the result lay.

For the molecule `CC[C@]1(O)C[C@@H]2CN(CCc3c([nH]c4ccccc34)[C@@](C(=O)OC)(c3cc4c(cc3OC)N(C)[C@H]3[C@@](O)(C(=O)OC)[C@H](OC(C)=O)[C@]5(CC)C=CCN6CC[C@]43[C@@H]65)C2)C1` [vinblastine], the “tau protein levels (Western blot)” value in assay [1] is “increased”. The “increase in tau protein levels” value in assay [1] (vinblastine 50 μM) is approximately 2.5 times.
With `Cn1cnc(N)c2ncnc1-2` [3MA, 3-methyladenine], the “Aβ secretion into the media” value in assay [2] (figure legend FIG. 11) is recorded as “reduction”. Further, the “reduction of Aβ40 secreted into the media” value in assay [2] (setting [7]) is “approximately 20%”. Also, the “reduction of Aβ42 secreted into the media” value in assay [2] (setting [7]) is reported as “approximately 20%”. The “increase in tau protein levels” value in assay [1] (3MA-treated, concentration not given) was “approximately 2 times”. For the same molecule, in assay [1], the “tau protein levels (Western blot)” value is “increased”. In addition, the “decrease of Aβ1-40 in conditioned medium” value is not below 20% in assay [3] and not below 20% in assay [4] (5 mM 3MA, ELISA, FIG. 10B). Moreover, the “decrease of Aβ1-42 in conditioned medium” value is on record as not below 20% in assay [3] and not below 20% in assay [4] (5 mM 3MA, ELISA, FIG. 10B). The “Aβ secretion into the growth media (ELISA)” value in assay [4] (figure legend FIG. 10B, N2a cells, both lines shown) is recorded as “decreased”. Moreover, the “amount of Aβ secreted” value in assay [5] (setting [8]) and in assay [6] (setting [8]) was “reduced” each time. The “amount of full-length APP immunoprecipitated from cell lysates” value in assay [5] (setting [9]) and in assay [6] (setting [9]) was “did not affect” in each case. Moreover, in assay [6] (figure legend FIG. 10A, neuroblastoma cells, both lines shown), the “Aβ generation (autoradiograph)” value was “decreased”.

The record behind these values is patent US7090987B1, “Methods for the identification of compounds for the treatment of neuronal atrophy-associated dementia” (priority 1999, dated 2006).
